Measurements: patent US20090036448A1, “PYRIMIDINE DERIVATIVES AND METHODS OF TREATMENT RELATED TO THE USE THEREOF” (TAISHO PHARMECUTICAL CO., LTD., priority 2004, published 2009)

These compounds were tested against MCH receptor (Homo sapiens, UniProt Q99705) (assay: Receptor binding assay with Radiolabelled MCH Ligand). Details: class by percent of control at 10^-7 M or IC50.
Set-up: expressed in transfected cells; host or cells: 293 cells (human kidney, ATCC), transient transfection; crude membranes
In short: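 This was a filtration radioligand displacement assay: compounds, first tested at 1 and 0.1 μM and then over a range, inhibited binding of a labelled MCH ligand to transfected 293-cell membranes at room temperature for 60–120 min. Specific binding excluded a cold-MCH nonspecific signal. Ki was derived from IC50 via Cheng-Prusoff, using an independently measured KD.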

MCH receptor, sequence (Q99705 whole entry): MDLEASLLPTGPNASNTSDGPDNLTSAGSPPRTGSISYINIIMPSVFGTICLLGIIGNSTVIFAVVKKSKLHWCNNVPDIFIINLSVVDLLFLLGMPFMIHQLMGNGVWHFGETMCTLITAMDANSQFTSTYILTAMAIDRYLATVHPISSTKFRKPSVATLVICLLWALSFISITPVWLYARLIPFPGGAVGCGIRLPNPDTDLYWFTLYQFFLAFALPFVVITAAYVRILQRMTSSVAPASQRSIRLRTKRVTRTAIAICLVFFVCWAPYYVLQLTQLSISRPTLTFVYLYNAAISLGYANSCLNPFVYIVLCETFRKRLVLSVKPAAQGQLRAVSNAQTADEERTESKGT

Compound	class
Cc1nc(N[C@H]2CC[C@@H](NC(=O)C3C[C@@H](c4ccccc4)CC[C@H]3C(=O)c3ccccc3)CC2)cc(N(C)C)n1 (stereo partly shown) [compound 351]	3 (Class 3: The value of percent of control at 10^−7 M was more than 60% or the value of IC50 was more than 200 nM.)
Cc1nc(N[C@H]2CC[C@@H](NCc3cc(C(C)(C)C)nn3Cc3ccc(Cl)cc3Cl)CC2)cc(N(C)C)n1 [compound 409]	3 (Class 3: The value of percent of control at 10^−7 M was more than 60% or the value of IC50 was more than 200 nM.)
Cc1nc(N[C@H]2CC[C@@H](NC(=O)CSCc3ccccc3)CC2)cc(N(C)C)n1 [compound 336]	3 (Class 3: The value of percent of control at 10^−7 M was more than 60% or the value of IC50 was more than 200 nM.)
COc1ccccc1OC(=O)N[C@H]1CC[C@@H](Nc2cc(N(C)C)nc(C)n2)CC1 [compound 456]	3 (Class 3: The value of percent of control at 10^−7 M was more than 60% or the value of IC50 was more than 200 nM.)
Cc1nc(N[C@H]2CC[C@@H](NC(=O)OCc3ccccc3)CC2)cc(N(C)C)n1 [compound 463]	3 (Class 3: The value of percent of control at 10^−7 M was more than 60% or the value of IC50 was more than 200 nM.)
Cc1nc(N[C@H]2CC[C@@H](NC(=O)CSc3ccncc3)CC2)cc(N(C)C)n1 [compound 302]	3 (Class 3: The value of percent of control at 10^−7 M was more than 60% or the value of IC50 was more than 200 nM.)
Cc1nc(N[C@H]2CC[C@@H](NS(=O)(=O)c3ccc(Cl)c(Cl)c3)CC2)cc(N(C)C)n1 [compound 502]	3 (Class 3: The value of percent of control at 10^−7 M was more than 60% or the value of IC50 was more than 200 nM.)
CCCCCc1ccc(C(=O)N[C@H]2CC[C@@H](Nc3cc(N(C)C)nc(C)n3)CC2)cc1 [compound 252]	3 (Class 3: The value of percent of control at 10^−7 M was more than 60% or the value of IC50 was more than 200 nM.)
Cc1nc(N[C@H]2CC[C@@H](NCc3cnn(-c4ccc([N+](=O)[O-])cc4)c3C(F)(F)F)CC2)cc(N(C)C)n1 [compound 380]	3 (Class 3: The value of percent of control at 10^−7 M was more than 60% or the value of IC50 was more than 200 nM.)
Cc1nc(N[C@H]2CC[C@@H](NC(=O)c3cccc4c(=O)c(C)c(-c5ccccc5)oc34)CC2)cc(N(C)C)n1 [compound 320]	3 (Class 3: The value of percent of control at 10^−7 M was more than 60% or the value of IC50 was more than 200 nM.)
Cc1nc(N[C@H]2CC[C@@H](NC(=O)[C@@H]3CCCN3S(=O)(=O)c3ccc(C(C)(C)C)cc3)CC2)cc(N(C)C)n1 (relative stereo) [compound 277]	3 (Class 3: The value of percent of control at 10^−7 M was more than 60% or the value of IC50 was more than 200 nM.)
Cc1nc(N[C@H]2CC[C@@H](NS(=O)(=O)Cc3ccc(Cl)c(Cl)c3)CC2)cc(N(C)C)n1 [compound 473]	3 (Class 3: The value of percent of control at 10^−7 M was more than 60% or the value of IC50 was more than 200 nM.)
Cc1nc(N[C@H]2CC[C@@H](NC(=O)c3ccc4ccccc4c3)CC2)cc(N(C)C)n1 [compound 231]	3 (Class 3: The value of percent of control at 10^−7 M was more than 60% or the value of IC50 was more than 200 nM.)
CCCCCCCc1ccc(-c2ccc(C(=O)N[C@H]3CC[C@@H](Nc4cc(N(C)C)nc(C)n4)CC3)cc2)cc1 [compound 334]	3 (Class 3: The value of percent of control at 10^−7 M was more than 60% or the value of IC50 was more than 200 nM.)
CCCc1ccc(S(=O)(=O)N[C@H]2CC[C@@H](Nc3cc(N(C)C)nc(C)n3)CC2)cc1 [compound 487]	3 (Class 3: The value of percent of control at 10^−7 M was more than 60% or the value of IC50 was more than 200 nM.)
C=CCOC(=O)N[C@H]1CC[C@@H](Nc2cc(N(C)C)nc(C)n2)CC1 [compound 462]	3 (Class 3: The value of percent of control at 10^−7 M was more than 60% or the value of IC50 was more than 200 nM.)
